Here are results for two compounds from publication PMC7736581, “Activation of the IRE1 RNase through remodeling of the kinase front pocket by ATP-competitive ligands” (Nature Communications, 2020).

Holding throughout (assay): biochemical
Common to all, as to parameters: Invitrogen kinase panel: Z'Lyte activity (ATP at Km) or LanthaScreen competitive ATP-site binding, percent inhibition
A general note: TR-FRET usually uses a lanthanide donor and a delayed reading to cut background.

The target of experiment [1] is T1, Rsk3 (Homo sapiens, UniProt Q15349).
T1 construct: gene RPS6KA2

The target of experiment [2] is T2, DCAMKL2 (Homo sapiens, UniProt Q8N568).
T2 construct: gene DCLK2

The target of experiment [3] is LIMK1 (Homo sapiens, UniProt P53667).
Experiment [4] addresses CSF1R (Homo sapiens, UniProt P07333).
Experiment [5] has as its target T3, PKC_epsilon (Homo sapiens, UniProt Q02156).
T3 construct: gene PRKCE

Experiment [6] concerns the target T4, JNK1_alpha1 (Homo sapiens, UniProt P45983).
T4 construct: gene MAPK8; isoform alpha1

Experiment [7] deals with T5, KHS1 (Homo sapiens, UniProt Q9Y4K4).
T5 construct: gene MAP4K5
T5 sequence (Q9Y4K4 whole entry): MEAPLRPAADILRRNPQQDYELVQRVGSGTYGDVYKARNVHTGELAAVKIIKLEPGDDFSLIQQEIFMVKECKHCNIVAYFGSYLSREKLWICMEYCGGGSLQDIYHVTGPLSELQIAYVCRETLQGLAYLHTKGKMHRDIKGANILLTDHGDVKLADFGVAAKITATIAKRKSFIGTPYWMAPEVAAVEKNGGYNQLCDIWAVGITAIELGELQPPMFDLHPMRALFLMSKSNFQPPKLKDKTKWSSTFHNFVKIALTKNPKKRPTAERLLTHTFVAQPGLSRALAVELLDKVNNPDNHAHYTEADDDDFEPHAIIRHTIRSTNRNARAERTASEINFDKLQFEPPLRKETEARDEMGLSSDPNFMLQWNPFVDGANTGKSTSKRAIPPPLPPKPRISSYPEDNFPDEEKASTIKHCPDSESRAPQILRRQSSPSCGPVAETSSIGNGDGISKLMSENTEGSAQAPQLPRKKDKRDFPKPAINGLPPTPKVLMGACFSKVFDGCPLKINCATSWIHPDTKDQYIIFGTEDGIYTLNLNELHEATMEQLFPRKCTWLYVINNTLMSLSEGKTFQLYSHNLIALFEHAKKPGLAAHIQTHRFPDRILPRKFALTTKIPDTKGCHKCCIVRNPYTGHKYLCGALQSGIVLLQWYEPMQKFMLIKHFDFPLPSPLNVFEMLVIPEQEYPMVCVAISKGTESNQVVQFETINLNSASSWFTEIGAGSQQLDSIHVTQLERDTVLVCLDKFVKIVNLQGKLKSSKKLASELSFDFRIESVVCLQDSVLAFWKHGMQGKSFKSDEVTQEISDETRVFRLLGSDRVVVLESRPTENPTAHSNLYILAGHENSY

The target of experiment [8] is T6, ARK5 (Homo sapiens, UniProt O60285).
T6 construct: gene NUAK1
T6 sequence (O60285 whole entry): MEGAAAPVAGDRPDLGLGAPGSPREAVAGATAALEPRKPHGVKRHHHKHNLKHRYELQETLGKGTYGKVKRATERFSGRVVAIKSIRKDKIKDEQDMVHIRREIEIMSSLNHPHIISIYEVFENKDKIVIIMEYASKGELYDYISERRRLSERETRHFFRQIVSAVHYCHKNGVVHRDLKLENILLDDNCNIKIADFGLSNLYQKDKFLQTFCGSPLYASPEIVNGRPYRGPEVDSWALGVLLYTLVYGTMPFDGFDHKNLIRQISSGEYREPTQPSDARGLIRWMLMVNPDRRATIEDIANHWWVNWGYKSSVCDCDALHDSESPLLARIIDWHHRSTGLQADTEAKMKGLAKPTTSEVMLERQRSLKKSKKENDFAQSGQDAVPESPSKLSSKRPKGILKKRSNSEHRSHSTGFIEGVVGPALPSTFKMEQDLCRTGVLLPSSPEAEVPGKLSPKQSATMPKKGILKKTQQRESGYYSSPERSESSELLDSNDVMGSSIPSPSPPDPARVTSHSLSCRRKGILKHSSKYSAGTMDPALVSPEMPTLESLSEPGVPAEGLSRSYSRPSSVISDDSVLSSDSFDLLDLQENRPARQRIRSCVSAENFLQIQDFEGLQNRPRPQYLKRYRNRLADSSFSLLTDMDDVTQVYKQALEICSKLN

Experiment [9] deals with T7, PDGFR_alpha (Homo sapiens, UniProt P16234).
T7 construct: gene PDGFRA

Experiment [10] addresses HIPK1 (Homo sapiens, UniProt Q86Z02).
In experiment [11] the target is T8, ALK2 (Homo sapiens, UniProt Q04771).
T8 construct: gene ACVR1

Experiment [12] deals with TEC (Homo sapiens, UniProt P42680).
Sequence of TEC (P42680 whole entry): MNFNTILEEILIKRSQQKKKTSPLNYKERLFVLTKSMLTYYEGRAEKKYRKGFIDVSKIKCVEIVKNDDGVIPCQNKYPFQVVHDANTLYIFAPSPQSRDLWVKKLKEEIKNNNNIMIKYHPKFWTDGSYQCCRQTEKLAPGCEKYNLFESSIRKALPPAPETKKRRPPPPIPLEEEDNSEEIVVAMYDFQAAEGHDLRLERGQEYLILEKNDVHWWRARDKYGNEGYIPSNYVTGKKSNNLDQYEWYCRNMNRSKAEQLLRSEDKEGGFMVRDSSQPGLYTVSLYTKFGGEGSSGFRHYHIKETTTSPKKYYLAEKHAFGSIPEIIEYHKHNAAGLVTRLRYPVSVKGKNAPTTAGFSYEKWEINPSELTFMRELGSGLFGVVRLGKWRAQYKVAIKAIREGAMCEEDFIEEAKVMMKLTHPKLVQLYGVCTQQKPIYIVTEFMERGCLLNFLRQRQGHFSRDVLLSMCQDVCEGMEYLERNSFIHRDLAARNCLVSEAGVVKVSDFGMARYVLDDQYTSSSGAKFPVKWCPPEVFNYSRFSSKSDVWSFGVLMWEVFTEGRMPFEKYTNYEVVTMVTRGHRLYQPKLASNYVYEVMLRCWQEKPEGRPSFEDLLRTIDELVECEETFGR
Experiment [13] deals with T9, CK1_gamma2 (Homo sapiens, UniProt P78368).
T9 construct: gene CSNK1G2
T9 sequence (P78368 whole entry): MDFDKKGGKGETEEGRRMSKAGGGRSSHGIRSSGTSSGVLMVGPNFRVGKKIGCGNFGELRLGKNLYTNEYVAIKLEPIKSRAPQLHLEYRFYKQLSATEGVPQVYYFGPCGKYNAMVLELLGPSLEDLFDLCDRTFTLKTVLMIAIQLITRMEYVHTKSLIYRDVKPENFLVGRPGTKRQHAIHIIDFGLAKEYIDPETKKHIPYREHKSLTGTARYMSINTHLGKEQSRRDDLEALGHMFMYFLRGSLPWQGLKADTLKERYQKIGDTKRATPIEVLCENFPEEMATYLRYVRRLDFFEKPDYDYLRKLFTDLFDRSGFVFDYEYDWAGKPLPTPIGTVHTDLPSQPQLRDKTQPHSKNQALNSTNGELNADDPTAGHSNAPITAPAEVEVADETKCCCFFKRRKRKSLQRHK

The target of experiment [14] is T10, PhK_gamma2 (Homo sapiens, UniProt P15735).
T10 construct: gene PHKG2

Experiment [15] deals with T11, Hyl (Homo sapiens, UniProt P42679).
T11 construct: gene MATK

Experiment [16] concerns the target SPHK1 (Homo sapiens, UniProt Q9NYA1).
The target of experiment [17] is CLK4 (Homo sapiens, UniProt Q9HAZ1).
The target of experiment [18] is T12, JNK3 (Homo sapiens, UniProt P53779).
T12 construct: gene MAPK10
T12 sequence (P53779 whole entry): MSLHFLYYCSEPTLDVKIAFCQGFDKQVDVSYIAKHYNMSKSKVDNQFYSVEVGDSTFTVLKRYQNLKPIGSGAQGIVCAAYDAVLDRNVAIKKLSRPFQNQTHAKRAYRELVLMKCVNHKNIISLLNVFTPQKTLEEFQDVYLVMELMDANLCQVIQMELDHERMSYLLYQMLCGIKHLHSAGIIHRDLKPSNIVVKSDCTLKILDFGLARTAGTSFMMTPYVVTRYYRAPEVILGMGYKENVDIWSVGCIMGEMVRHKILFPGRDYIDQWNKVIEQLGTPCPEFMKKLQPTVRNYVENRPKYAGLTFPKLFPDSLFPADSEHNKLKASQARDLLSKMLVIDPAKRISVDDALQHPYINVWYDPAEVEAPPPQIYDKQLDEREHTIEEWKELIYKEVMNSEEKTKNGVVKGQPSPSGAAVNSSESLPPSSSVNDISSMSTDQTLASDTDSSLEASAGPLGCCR

The target of experiment [19] is BrSK1 (Homo sapiens, UniProt Q8TDC3).
The target in experiment [20] is PLK2 (Homo sapiens, UniProt Q9NYY3).
For experiment [21], the target named is T13, MYLK3(caMLCK) (Homo sapiens, UniProt Q32MK0).
T13 construct: caMLCK

Experiment [22] concerns the target T14, PKG1_alpha (Homo sapiens, UniProt Q13976).
T14 construct: gene PRKG1; isoform alpha

The target in experiment [23] is T15, CK2_alpha1 (Homo sapiens, UniProt P68400).
T15 construct: gene CSNK2A1

For experiment [24], the target named is T16, eEF-2K (Homo sapiens, UniProt O00418).
T16 construct: gene EEF2K
T16 sequence (O00418 whole entry): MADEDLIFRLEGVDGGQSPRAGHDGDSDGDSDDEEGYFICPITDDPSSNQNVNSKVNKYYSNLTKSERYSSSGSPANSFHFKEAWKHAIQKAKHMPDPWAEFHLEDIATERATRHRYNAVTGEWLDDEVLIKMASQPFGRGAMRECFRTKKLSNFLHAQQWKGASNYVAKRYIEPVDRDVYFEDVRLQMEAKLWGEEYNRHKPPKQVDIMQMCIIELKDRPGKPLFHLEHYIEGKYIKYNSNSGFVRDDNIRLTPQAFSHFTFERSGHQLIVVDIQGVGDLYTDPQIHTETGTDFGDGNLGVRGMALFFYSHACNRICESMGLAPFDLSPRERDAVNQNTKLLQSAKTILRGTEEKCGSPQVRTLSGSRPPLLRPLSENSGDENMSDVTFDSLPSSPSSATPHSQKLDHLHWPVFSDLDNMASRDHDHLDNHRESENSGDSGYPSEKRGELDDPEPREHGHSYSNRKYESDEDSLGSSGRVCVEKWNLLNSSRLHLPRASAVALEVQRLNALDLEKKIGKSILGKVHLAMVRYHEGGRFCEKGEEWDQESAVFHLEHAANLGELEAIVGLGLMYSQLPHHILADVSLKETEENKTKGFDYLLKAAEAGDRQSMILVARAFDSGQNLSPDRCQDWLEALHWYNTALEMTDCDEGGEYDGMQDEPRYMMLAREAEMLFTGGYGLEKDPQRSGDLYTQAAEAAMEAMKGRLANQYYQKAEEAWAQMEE

Sequence of HIPK1 (Q86Z02 whole entry): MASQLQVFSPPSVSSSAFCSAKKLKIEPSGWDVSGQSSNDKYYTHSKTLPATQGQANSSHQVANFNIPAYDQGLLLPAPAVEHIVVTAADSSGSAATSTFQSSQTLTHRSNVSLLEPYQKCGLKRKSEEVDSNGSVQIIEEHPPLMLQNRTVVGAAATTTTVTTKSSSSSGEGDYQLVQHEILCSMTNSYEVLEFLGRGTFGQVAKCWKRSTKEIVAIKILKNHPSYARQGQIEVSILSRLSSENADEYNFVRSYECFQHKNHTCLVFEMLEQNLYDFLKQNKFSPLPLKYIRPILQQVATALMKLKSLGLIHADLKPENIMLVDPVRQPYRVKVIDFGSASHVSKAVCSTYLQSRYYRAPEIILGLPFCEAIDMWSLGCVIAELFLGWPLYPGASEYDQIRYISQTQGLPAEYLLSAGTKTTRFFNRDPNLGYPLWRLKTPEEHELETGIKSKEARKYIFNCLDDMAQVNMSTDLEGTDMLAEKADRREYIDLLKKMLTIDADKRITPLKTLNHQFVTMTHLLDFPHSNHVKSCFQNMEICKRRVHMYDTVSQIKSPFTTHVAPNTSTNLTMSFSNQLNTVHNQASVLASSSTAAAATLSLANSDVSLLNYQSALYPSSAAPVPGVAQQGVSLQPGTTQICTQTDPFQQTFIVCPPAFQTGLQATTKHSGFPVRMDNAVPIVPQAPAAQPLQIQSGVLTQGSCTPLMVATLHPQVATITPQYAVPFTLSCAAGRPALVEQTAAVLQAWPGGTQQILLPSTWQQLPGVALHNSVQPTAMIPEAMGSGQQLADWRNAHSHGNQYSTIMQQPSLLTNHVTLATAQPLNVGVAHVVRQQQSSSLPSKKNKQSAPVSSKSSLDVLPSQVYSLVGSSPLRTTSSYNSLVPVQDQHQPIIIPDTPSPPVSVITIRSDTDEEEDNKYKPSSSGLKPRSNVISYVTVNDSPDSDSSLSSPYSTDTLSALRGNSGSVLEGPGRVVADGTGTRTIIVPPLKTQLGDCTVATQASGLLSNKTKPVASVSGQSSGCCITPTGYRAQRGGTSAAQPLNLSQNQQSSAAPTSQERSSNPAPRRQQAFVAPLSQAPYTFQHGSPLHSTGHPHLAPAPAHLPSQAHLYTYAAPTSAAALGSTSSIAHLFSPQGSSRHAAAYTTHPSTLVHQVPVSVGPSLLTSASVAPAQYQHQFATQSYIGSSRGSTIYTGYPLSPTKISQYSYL

Usually inhibition stands for the drop in the measured response relative to a control, in per cent. Turning to `CC#CC(=O)Nc1cccc2c(Oc3ncccc3-c3ccnc(N[C@H]4CCCNC4)n3)c(C)ccc12` [G-7658], the inhibition at 1 µM in [1] was 9%; in experiment [2], 2%; in experiment [3], 15%; in experiment [4] it was -7.5%; in [5], 9.5%; in [6] it was 72.5%. Moreover, the inhibition at 1 µM in experiment [7] is 18%; in experiment [8], 8%; in experiment [9] it was -0.5%; in experiment [10], 0.5%; in experiment [11], 0.5%; in [12] it was 3%. In addition, the inhibition at 1 µM in experiment [13] was -4.5%; in experiment [14], 4%; in [15], 6.5%; in [16], -5%; in experiment [17], 6%; in [18] it was 51.5%. Moreover, the inhibition at 1 µM was determined as 4.5% in experiment [19]; 3% in experiment [20]; 4.5% in experiment [21]; 3.5% in experiment [22]; 0% in experiment [23]; 5% in experiment [24].
As to `CCOC(=O)Nc1cccc2c(Oc3ncccc3-c3ccnc(N[C@H]4CCCNC4)n3)c(C)ccc12` [G-1749], the inhibition at 1 µM was 10% in experiment [1]; 3% in [2]; 4.5% in experiment [3]; 7% in [4]; 14.5% in experiment [5]; 53.5% in experiment [6]. In addition, the inhibition at 1 µM in experiment [7] is 29.5%; in experiment [8], 12%; in experiment [9], -3.5%; in experiment [10] it was 1%; in experiment [11] it was 1%; in experiment [12] it was 4%. The inhibition at 1 µM in experiment [13] is -4.5%; in experiment [14] it was 2.5%; in experiment [15] it was 6.5%; in [16], 14.5%; in experiment [17], 10.5%; in [18] it was 52.5%. The inhibition at 1 µM in experiment [19] was 6.5%; in experiment [20], 3%; in experiment [21], 10.5%; in experiment [22], 1%; in experiment [23], 0.5%; in [24], 5%.
